The record followed here is patent US20220347085A1, “REPELLENT COMPOSITION AND USES” (Université Bourgogne, priority 2019, published 2022).

Type in all cases: in vivo
Series [1] deals with Drosophila suzukii. The series is described as follows: Courtship of male Drosophila suzukii towards females, olfactory exposure. The note with it: compared with solvent alone, 10 min observation. Here is the method:
Drosophilae (Drosophila melanogaster) aged from 3 to 9 days are used for the courtship tests according to the method described above.
Naive males were isolated in tubes, individually, upon emerging from their puparium.
The females were selected to be virgin and were stored in tubes of 10 individuals. These tubes were placed in an inclined manner in incubators, for which a temperature of 25° C. was kept constant. A 12 hour-12 hour day/night cycle was applied. The courtship tests were carried out in the morning, between 1 and 3 hours after the start of the day cycle.
At the time of the test, a 6 mm disk of filter paper (Whatman, filter paper 42) was deposited per alveolus of the device for studying the courtship behavior. Each alveolus was cylindrical, transparent and closed, and of a volume of 1.52 or 0.9 cm^3. FIG. 16 is a schematic representation of an alveolus of the device used.
The paper was then soaked in 10 μl of a composition of 0.1%, 0.5% or 1% propionic acid, or 0.1%, 0.5% or 1% butyric acid, or a mixture comprising 0.1% propionic acid and 0.1% butyric acid, 0.25% propionic acid and 0.25% butyric acid or 0.5% propionic acid and 0.5% butyric acid. A gauze (netting) makes it possible to physically isolate the drosophilae from the odor. 6 pairs (one per alveolus) were observed independently. Each pair was made up of one male and one intact female, each originating from the tubes mentioned above.
The behavior was filmed for 10 minutes, under white light, using a Sony HDR-XR550 camera. Each film was recorded and then analyzed. For each concentration of the compositions used, the number of pairs of flies was, respectively, 33, 39, 27, 38, 33, 27, 12, 6 and 12.
A negative control was carried out comprising only the solvent, i.e. paraffin oil, in order to verify the absence of an effect of the solvent on the flies.
A courtship percentage was calculated, and represents the time during which the male courts the female during the 10 minutes of observation (recording). The courtship of the Drosophila suzukii is decomposed into recognizable stereotypical events, and described precisely in scientific literature (Revadi S et al., Insects 2015 [4]). Statistical tests, i.e. a Kruskal-Wallis test followed by a post-hoc Dunn's Multiple Comparison Test, were carried out (GraphFad, Prism6) in order to evaluate the influence, on the behavior, of the composition in which the paper is soaked; this involving a release of volatile compounds and an odor perceived by the drosophilae.

For series [2], the system named is Drosophila suzukii. The series is described as follows: Test in a box (repellent effect), Drosophila suzukii. The note with it: 2% in solvent, 1250 cm^3 box. The method, then: (§1) 2. Tests “in a Box” (Repellent Effect)
(§2) The sensitivity of the drosophilae was evaluated over a period of between 0 minutes and 24 hours, according to the conditions (see results) in closed and transparent boxes of 1250 cm^3.
(§3) An odor source, i.e. a composition comprising butyric acid or propionic acid in paraffin oil, was deposited on a filter paper at the base of a 50 mm petri dish. The petri dish is introduced into a test box and covered with a gauze Securimed M8202 sterile gauze pad) in order to prevent the flies from getting stuck on the oily odorous compound.
(§4) The concentrations used were 2%, 6% or 20% propionic acid.
(§5) A second Petri dish containing 5 to 6 grams of synthetic food used for breeding drosophilae in laboratories was placed in the test box, i.e. 6.5% maize flour, 6.5% (v/v) yeast extract, 1% (v/v) agar-agar, and 3% (v/v) of a 0.1% (v/v) antifungal solution (Tegosept (Apex)) in ethanol at 95%. This latter provides the water and/or the food which the flies needed during the test, and eliminated the possibility of an event due to dehydration of the individuals tested.
(§6) Drosophila melanogaster or suzukii were then introduced by groups into the test box, and moved there freely over time. Their behavior in the presence of a composition as mentioned above was observed and photographed (Apple iPhone 6S).

A further series relates to Bactrocera oleae. Kind of series: Courtship of male Bactrocera oleae towards females, olfactory exposure. The method, then: 1. […] Insect Behay. 2012 [6] and Menage Cindy, personal communication). Naive males were isolated in tubes, individually, upon emerging from their puparium. The females were selected to be virgin and were stored in tubes, together. These tubes were placed in an inclined manner in incubators, for which a temperature of 25° C. was kept constant. A 12 hour/12 hour day/night cycle was applied. […] Each alveolus was cylindrical, transparent and closed, and of a volume of 5.9 cm^3. FIG. 16 is a schematic representation of an alveolus of the device used. • The papers were then each soaked in […] of a composition of 2%, 4% or 5% propionic acid. A gauze (netting) made it possible to physically isolate the B. ° lea from the odor corresponding to the propionic acid. 2 pairs (one per alveolus) were observed independently. Each pair was made up of one male and one female, each originating from the tubes mentioned above. • The behavior was filmed for 10 minutes, under white light, using a Basler acA1920-155 um USB 3.0 camera. Each film was recorded (Basler Video Recording Software V1.3) and then analyzed. For each concentration of the compositions used, the number of pairs of flies was, respectively, 2, 5, 2, 2, 2 and 6, 6, 4, 4. • A negative control was carried out comprising only the solvent, i.e. paraffin oil, in order to verify the absence of an effect of the solvent on the flies.
A courtship percentage was calculated, and represents the time during which the male courts the female during the 10 minutes of observation (recording). The different steps consist in movement of the wings (rapid “buzzing” and/or vertical vibrations), face movements, lateral movements, “dances” in rapid circles and in the direction of the female (Benelli, J. Insect Beahv 2012 [6] and Ménagé Cindy, personal communication).

The test system of another series is Drosophila melanogaster. Kind of series: Test in a box (repellent effect), Drosophila melanogaster. As to conditions: 1250 cm^3 box; for courtship and copulation in the box / survival of flies in the box: 24 hours. The method, then: as §1, §2, §3, §4, §5, §6

As for `CCCC(=O)O` [butyric acid], the “proportion of courtship of males towards females” value (“proportion” below) in the series on Drosophila suzukii [1] (0.5% (v/v) in paraffin oil) is “significantly reduced”. Further, the “proportion” value in the series on Drosophila suzukii [1] (1% (v/v) in paraffin oil) is listed as “significantly reduced”. Besides, the “repellent behavior (location of flies relative to odor source)” value in the series with Drosophila suzukii [2] was “remained away from the filter soaked in butyric acid”. In the series with Drosophila suzukii [2] (males and females), the “anesthesia at a distance in the box” value is “anesthetized” and the “time until death in the box” value turned out to be 20 h.
With `CCC(=O)O` [propionic acid], the “courtship of males towards females” value is reported as “significantly reduced” with Bactrocera oleae (2% in solvent, flies aged 3 to 6 days, compared with solvent alone); “significantly reduced” in the series with Bactrocera oleae (2% in solvent, flies aged 13 to 19 days, compared with solvent alone); “virtually nonexistent” with Bactrocera oleae (4% in solvent, flies aged 3 to 6 days); “virtually nonexistent” in the series on Bactrocera oleae (5% in solvent, flies aged 3 to 6 days); “significantly reduced” with Bactrocera oleae (5% in solvent, flies aged 13 to 19 days, compared with solvent alone). For the same compound, the “courtship and copulation in the box” value was “court and copulate” with Drosophila melanogaster (2% in paraffin oil); “court and copulate” in the series on Drosophila melanogaster (6% in paraffin oil). Besides, the “survival of flies in the box” value in the series with Drosophila melanogaster (2% in paraffin oil) and in the series on Drosophila melanogaster (6% in paraffin oil) was “still alive after 24 hours” in each case. In addition, the “anesthesia at a distance in the box” value with Drosophila melanogaster (20% in solvent) is “anesthetized in the test hour”; with Drosophila suzukii [2] (males and females), “anesthetized in the hour which followed”. Moreover, the figures for the “repellent behavior (location of flies relative to odor source)” value in the series on Drosophila melanogaster (20% in solvent) and in the series with Drosophila suzukii [2] were “keep away from the filter paper” and “remained preferably away from said odor”, respectively. Besides, the “proportion” value with Drosophila suzukii [1] (0.5% (v/v) in paraffin oil) and in the series on Drosophila suzukii [1] (1% (v/v) in paraffin oil) was “significantly reduced” in each case.
